Patent US6692757B1, “Multi-component, safe biocidal complex” (Board of Supervisors of Louisiana State University and …, priority 1999, dated 2004)

Experiments:
[1] = tested on: Escherichia coli on chicken skin; assay: MIC on inoculated chicken skin, E. coli; format: cell-based, Escherichia coli B; conditions: single agent; chicken skin immersed 10 min at 20° C.; concentration reducing final count below 17.5 cfu/cm^2
Protocol: To test the effectiveness of Biocidal Complex on other surfaces, a 5.7 cm^2 piece of chicken leg skin was placed in a holder made from a bottomless 50 ml centrifuge tube with a cap to support the skin test strip. Each skin sample was initially immersed in water. […] The bacteria were counted as described below. This value served as the control. The skin was then exposed to germicidal ultraviolet light for 5 min to sanitize the skin prior to inoculation. The sanitized skin was inoculated with 1 ml of a cell suspension containing 10^8 cfu/ml of either Salmonella typhimurium or Escherichia coli B and incubated for 30 min at 37° C. and 32° C., respectively. The inoculated skin samples were immersed in Biocidal Complex or in other combinations of ingredients at 20° C. for 10 min. […] The cotton swabs from both the control and treated skin were vortex-mixed for 1 min in a 0.1% peptone solution (pH 7.2). Then 0.5 ml of peptone solution was plated on MacConkey agar (Difco Laboratory, Detroit, Michigan). The plates were incubated for 24 hr at either 37° C. or 32° C. before counting the colonies. Microbial counts were expressed as cfu/cm^2, based on a total skin sample area of 5.7 cm^2. An initial level of contamination before treatment with Biocidal Complex (or water) was assessed for each sample. […] Initial contamination level of the inoculated skin after 30 min incubation time and immediately prior to treatment was 140,000 cfu/cm^2.

[2] = tested on: bacteria endogenous to the city water system (biofilm on glass beads); assay: Biofilm-contaminated glass beads column: organisms released in effluent; format: cell-based; design: key: −: No significant reduction in number of organisms.; +/−: A small or transient reduction in number of organisms.; +: A significant reduction in number of organisms.; +++: A reduction to below 10 organisms per ml effluent; conditions: hydrogen peroxide 3% v/v, NaHSO4 0.06% w/v, thymol >0.1% w/v, iron chip, treated four days, 12 h static
Protocol: The beads were first contaminated with bacteria endogenous to the city water system for five days.
0.06% w/v; and thymol, >0.1% w/v. Additionally, an iron chip was added to the Biocidal Complex.
Glass beads with an established biofilm were treated, and samples collected and analyzed, as described above.

[3] = tested on: Salmonella typhimurium in broth culture; assay: MIC in broth culture, S. typhimurium; format: cell-based; conditions: single agent; nutrient broth, 24 hours at 37° C.; no detectable growth
Protocol: (§1) Nutrient broth was mixed with the complete Biocidal Complex or with combinations of ingredients, and then serially diluted two-fold in stages. Various combinations of biocidal ingredients and broth were inoculated with 0.1 ml of either Salmonella typhimurium or Escherichia coli B to give a microbial count of about 10^7 cfu/ml. Inoculated broth was then incubated for 24 hours at 37° C. for S. typhimurium, or at 32° C. for E. coli.

[4] = tested on: Escherichia coli in broth culture; assay: MIC in broth culture, E. coli; format: cell-based, Escherichia coli B; conditions: single agent; nutrient broth, 24 hours at 32° C.; no detectable growth
Protocol: as §1

[5] = tested on: Salmonella typhimurium on chicken skin; assay: MIC on inoculated chicken skin, S. typhimurium; format: cell-based; conditions: single agent; chicken skin immersed 10 min at 20° C.; concentration reducing final count below 17.5 cfu/cm^2
Protocol: To test the effectiveness of Biocidal Complex on other surfaces, a 5.7 cm^2 piece of chicken leg skin was placed in a holder made from a bottomless 50 ml centrifuge tube with a cap to support the skin test strip. Each skin sample was initially immersed in water. […] The bacteria were counted as described below. This value served as the control. The skin was then exposed to germicidal ultraviolet light for 5 min to sanitize the skin prior to inoculation. The sanitized skin was inoculated with 1 ml of a cell suspension containing 10^8 cfu/ml of either Salmonella typhimurium or Escherichia coli B and incubated for 30 min at 37° C. and 32° C., respectively. The inoculated skin samples were immersed in Biocidal Complex or in other combinations of ingredients at 20° C. for 10 min. […] The cotton swabs from both the control and treated skin were vortex-mixed for 1 min in a 0.1% peptone solution (pH 7.2). Then 0.5 ml of peptone solution was plated on MacConkey agar (Difco Laboratory, Detroit, Michigan). The plates were incubated for 24 hr at either 37° C. or 32° C. before counting the colonies. Microbial counts were expressed as cfu/cm^2, based on a total skin sample area of 5.7 cm^2. An initial level of contamination before treatment with Biocidal Complex (or water) was assessed for each sample. […] Contamination level of the inoculated skin after 30 min incubation time and immediately before treatment was 3,500,000 cfu/cm^2. The water-washed control skin ha 1,750 cfu/cm^2.

MIC (%) [1]	MIC (%) [3]	MIC (%) [4]	MIC (%) [5]	SMILES	Effect: qualitative changes in number of organisms released from established biofilms [2]
>0.1%	0.04%	0.02%	>0.1%	Cc1ccc(C(C)C)c(O)c1 [Thymol, thymol]	+/−
1.0%	0.025%	0.013%	1.0%	OCl [Sodium Hypochlorite, sodium hypochlorite, reference compound]	

SMILES	MIC (%) [1]	MIC (%) [3]	MIC (%) [4]	MIC (%) [5]	Effect: qualitative changes in number of organisms released from established biofilms [2]
OO [H2O2, hydrogen peroxide]	4.0%	0.012%	0.006%	7.0%	−
